Test [1] has as its system RF strain of HIV (CEM-SS cells). Kind of test: Cell Culture Anti-HIV Activity (cell viability, formazan). The format is cell-based. As to conditions: Human immunodeficiency virus 1, CEM-SS, 144 h, CEM-SS cells, RF strain of HIV, multiplicity of infection 0.04, 6 days at 37° C., 450 nm; read-out: HIV (CEM Cells) IC50. The gist of the method:
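CEM-SS cells (5000/well) infected with HIV RF at MOI 0.04, exposed to half-log serial compound dilutions, incubated 6 days at 37° C. Viability read by tetrazolium reduction to formazan, absorbance 450 nm. IC50 is the concentration raising formazan in infected cells to 50% of uninfected, drug-free cells.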

Test [2] concerns the target T1, HIV protease (Human immunodeficiency virus type 1 group M subtype B, UniProt P04585).
T1 construct: and purified protease
Kind of test: HIV Protease Assay. The format is biochemical. As to conditions: pH 5.5, 10 μM inhibitor, 4% DMSO, 450 μM substrate, pH 5.5, 30 minutes at 37° C., RP-HPLC; read-out: HIV Protease % Inhibition at 10 μM. The gist of the method: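 Purified protease cleaved 450 μM octapeptide substrate in 50 mM sodium acetate pH 5.5 with 100 μg/ml BSA for 30 minutes at 37° C; product analyzed by reverse-phase HPLC at UV220 after H3PO4 quench. Inhibitors tested at final 10 μM with 4% DMSO.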

Our source for the IC50 and inhibition values is US5760036A, “Aminediol protease inhibitors” (E. R. Squibb & Sons, Inc., priority 1995, dated 1998).

Broadly, the IC50 is the concentration that inhibits the measured activity by half. As a reminder, the inhibition is the percentage by which the read-out fell short of the control.

For `CC(C)[C@H](NC(=O)[C@H](C)O)C(=O)N[C@@H](Cc1ccccc1)[C@H](O)CNC[C@@H](O)[C@H](Cc1ccccc1)NC(=O)OC(C)(C)C` [Compound 225, [1S-[[1R*,2S*(2S*,3R*)],N^2-(R*)]-N-[3-[[3-[[(1,1-Dimethylethoxy)carbonyl]amino]-2-hydroxy-4-phenylbutyl]amino]-2-hydroxy-1-(phenylmethyl)propyl]-N^2-(2-hydroxy-1-oxo-propyl)-L-valinamide], the IC50 in test [1] turned out to be 500 nM. Further, the inhibition at 10 µM in test [2] was 99%.

In the case of `CC(C)(C)OC(=O)N[C@@H](Cc1ccccc1)[C@H](O)CNC[C@@H](O)[C@H](Cc1ccc(OCC(=O)N2CCOCC2)cc1)NC(=O)OC(C)(C)C` [Compound 226, [1S-[1R*,2S*(2S*,3R*)]]-[3-[[3-[[(1,1-Dimethylethoxy)carbonyl]amino]-2-hydroxy-4-(4-[2-(4-morpholinyl)-2-oxo-ethoxy]phenyl]butyl]amino]-2-hydroxy-1-(phenylmethyl)propyl]carbamic acid, 1,1-dimethylethyl ester], the IC50 in test [1] came to 50 nM. In addition, the inhibition at 10 µM in test [2] was 98%.

In the case of `CC(C)(C)OC(=O)N[C@@H](Cc1ccccc1)[C@H](O)CNC[C@@H](O)[C@H](Cc1ccccc1)NC(=O)OC(C)(C)[C@@H](O)CO` [Compound 227, [1S-(1R*,2S*),(R*)]-[Iminobis[2-hydroxy-1-(phenylmethyl)-3,1-propanediyl]]biscarbamic acid, 2,3-dihydroxy-1,1-dimethylpropyl 1,1-dimethylethyl ester], in test [1], the IC50 was determined as 900 nM. In test [2], the inhibition at 10 µM stood at 99%.

On to `CC(C)(C)OC(=O)N[C@@H](Cc1ccccc1)[C@H](O)CNC[C@@H](O)[C@H](Cc1ccccc1)NC(=O)OC(C)(C)[C@H](O)CO` [Compound 228, [1S-(1R*,2S*),(S*)]-[Iminobis[2-hydroxy-1-(phenylmethyl)-3,1-propanediyl]]biscarbamic acid, 2,3-dihydroxy-1,1-dimethylpropyl 1,1-dimethylethyl ester], for which, in test [1], the IC50 amounted to 700 nM. The inhibition at 10 µM in test [2] was determined as 98%.

With `CC(C)(C)OC(=O)N[C@@H](Cc1ccccc1)[C@H](O)CNC[C@@H](O)[C@H](Cc1ccccc1)NC(=O)OC(C)(C)CCCO` [Compound 229, [R-(R*,S*)]-[Iminobis[2-hydroxy-1-(phenylmethyl)-3,1-propanediyl)]biscarbamic acid, 4-hydroxy-1,1-dimethyl-butyl 1,1-dimethylethyl ester], the IC50 in test [1] was found to be 600 nM. Besides, in test [2], the inhibition at 10 µM was 82%.

Take `CC(C)(C)OC(=O)N[C@@H](Cc1ccccc1)[C@H](O)CNC[C@@H](O)[C@H](Cc1ccccc1)NC(=O)OC[C@@H](O)CO` [Compound 230, [1S-(1R*,2S*),(R*)]-[Iminobis[2-hydroxy-1-(phenylmethyl)-3,1-propanediyl]]biscarbamic acid, 2,3-dihydroxypropyl 1,1-dimethylethyl ester]: the IC50 in test [1] was 4900 nM. The inhibition at 10 µM in test [2] amounted to 92%.

In the case of `C[C@H](O)C(C)(C)OC(=O)N[C@@H](Cc1ccccc1)[C@H](O)CNC[C@@H](O)[C@H](Cc1ccccc1)NC(=O)OC(C)(C)C` [Compound 232, [1S-(1R*,2S*),(R*)]-[Iminobis[2-hydroxy-1-(phenylmethyl)-3,1-propanediyl]]biscarbamic acid, 1,1-dimethylethyl 2-hydroxy-1,1-dimethylpropyl ester], the IC50 in test [1] came to 50 nM. For the same compound, in test [2], the inhibition at 10 µM was 99%.

Consider `CC(C)(C)OC(=O)N[C@@H](Cc1ccccc1)[C@H](O)CNC[C@@H](O)[C@H](Cc1ccc(O)cc1)NC(=O)OC(C)(C)CO` [Compound 233, [1S-[1R*,2S*(2S*,3R*)]]-[3-[[3-[[(1,1-Dimethylethoxy)carbonyl]amino]-2-hydroxy-4-(4-hydroxyphenyl)butyl]amino]-2-hydroxy-1-(phenylmethyl)propyl]carbamic acid,2-hydroxy-1,1-dimethylethyl ester], for which, in test [1], the IC50 was 1000 nM. Further, in test [2], the inhibition at 10 µM is 100%.
